Data as given in article PMC6362307, “DPP8/DPP9 inhibition elicits canonical Nlrp1b inflammasome hallmarks in murine macrophages” (Life Science Alliance, 2019).
Where two headings read alike, the source gives them in different places.

Assays:
B6 BMDMs = assay: Cell death kinetics, Sytox Green on Incucyte; assay type: cell-based
[1] = tested on: LPS-primed B6^Nlrp1b+ BMDMs; assay: IL-1β and IL-18 secretion, Luminex multiplex assay; assay type: cell-based, mouse
B6^Nlrp1b+ASC^−/− BMDMs [2] = assay: Cell death kinetics, Sytox Green on Incucyte; assay type: cell-based, mouse; conditions: 10 μM
B6^Nlrp1b+ASC^−/− BMDMs [3] = assay: Caspase-1 cleavage by immunoblot; assay type: cell-based, mouse; conditions: 10 μM; 8 h
[4] = tested on: B6^Nlrp1b+C1^−/−C11^−/−ASC^−/− macrophages; assay: Cell death morphology, confocal bright-field imaging; assay type: cell-based, mouse; conditions: 10 μM; 4 h
human DPP9 [5] = target: T1, human DPP9 (Homo sapiens, UniProt Q86TI2); conditions: for Inhibitor in lysate / Inhibitor in medium: mouse, 15 min, 10 µM
B6^Nlrp1b+ BMDMs [6] = assay: ASC speck formation, confocal imaging; assay type: cell-based, mouse; conditions: 10 μM; 4 or 8 h
Procedure: Cells were stained with anti-ASC (1:200) antibody, followed by secondary anti-rabbit DyLight 594 (1:1,000). Then, slides were mounted on ProLong Gold Antifade reagent with DAPI for analysis. For quantification of ASC specks, analyses were performed on a spinning-disk system (Zeiss), using an observer Z.1 microscope equipped with a Yokogawa disk CSU-X1. Fluorescent images were acquired with the use of a Plan-Apochromat 40×/1.4 oil DIC III objective and a Rolera Em-C2 Camera. Tile scanning was performed combining 4 × 5 images for the final mosaic (total area 7.42 mm × 5.91 mm). The maximum intensity projections of the final mosaic were analysed on Volocity 6.3.1 (PerkinElmer) software for the number of cells containing ASC specks. Seven mosaics were quantified per experimental condition from each biological repeat and the data from all repeats were combined. One-way ANOVA with Tukey’s multiple comparisons analysis was performed in GraphPad Prism 6.0 software.

B6^Nlrp1b+ BMDMs [7] = assay: Caspase-1 cleavage by immunoblot; assay type: cell-based, mouse; conditions: for caspase-1 maturation to p20 (in words): LPS-primed 3 h, 10 or 40 μM, 4, 8 and 24 h; for caspase-1 maturation (in words): LPS-primed, 4 and 8 h
human DPP9 [8] = target: T1, human DPP9; assay: biochemical
B6^Nlrp1b+ BMDMs [9] = assay: Cell death kinetics, Sytox Green on Incucyte; assay type: cell-based, mouse; conditions: for time to reach 30% half-maximal level of pyroptosis: VBP: all tested concentrations (10, 25, 40 μM), 1G244: 10 μM
[10] = tested on: B6^Nlrp1b+GSDMD^−/− macrophages; assay: Apoptosis induction, confocal bright-field imaging; assay type: cell-based, mouse; conditions: 10 μM; 4 h
Human DPP2 [11] = target: T2, Human DPP2 (Homo sapiens, UniProt Q9UHL4)
Procedure: (§1) Lys-Ala-paranitroanilide (Lys-Ala-pNA) was used as substrate at a final concentration of 1 mM.

Human DPP2 [12] = target: T2, Human DPP2; assay: biochemical
Procedure: as §1

Human recombinant FAP = target: T3, Human recombinant FAP (Homo sapiens, UniProt Q12884)
T3 sequence (Q12884 26-760 limits assumed): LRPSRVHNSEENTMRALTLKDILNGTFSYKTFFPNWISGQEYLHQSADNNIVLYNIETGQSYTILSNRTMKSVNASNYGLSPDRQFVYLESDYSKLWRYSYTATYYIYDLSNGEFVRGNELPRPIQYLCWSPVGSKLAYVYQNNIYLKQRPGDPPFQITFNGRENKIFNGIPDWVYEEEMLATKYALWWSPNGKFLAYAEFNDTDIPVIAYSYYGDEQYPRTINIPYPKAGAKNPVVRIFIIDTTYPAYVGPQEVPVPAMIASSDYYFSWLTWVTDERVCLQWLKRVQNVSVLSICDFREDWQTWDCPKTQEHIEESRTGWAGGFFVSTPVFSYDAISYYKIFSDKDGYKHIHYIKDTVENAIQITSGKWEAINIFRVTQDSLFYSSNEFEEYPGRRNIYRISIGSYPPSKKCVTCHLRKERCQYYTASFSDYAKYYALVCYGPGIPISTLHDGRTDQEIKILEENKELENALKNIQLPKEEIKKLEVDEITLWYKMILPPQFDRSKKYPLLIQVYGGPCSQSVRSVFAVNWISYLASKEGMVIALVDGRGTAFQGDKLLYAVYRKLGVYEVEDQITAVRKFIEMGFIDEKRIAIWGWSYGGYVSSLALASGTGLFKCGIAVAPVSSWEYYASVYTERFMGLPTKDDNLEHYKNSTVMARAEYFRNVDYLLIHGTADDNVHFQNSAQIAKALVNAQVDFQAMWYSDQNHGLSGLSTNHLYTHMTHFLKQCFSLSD
Procedure: FAP and PREP were assayed in buffer containing 0.1 M Tris–HCl (pH 8), 300 mM NaF, 1 mM EDTA, 50 mM salicylic acid, and 5 mM DTT.

J774.A1 cells = assay: Cell death kinetics, Sytox Green on Incucyte; conditions: 10 μM and 25 μM
[13] = tested on: B6^Nlrp1b+C1^−/−C11^−/− macrophages; assay: Caspase-8 cleavage by immunoblot; assay type: cell-based, mouse; conditions: 10 μM; 4 h
[14] = calibration curve in cell lysate
[15] = cell lysate of BMDMs that received 10 µM for 15 min
[16] = medium of BMDMs that received 10 µM for 15 min
[17] = Ic50, calibration curve in cell lysate
[18] = Ic50, calibration curve in medium

T1 sequence (Q86TI2 whole entry): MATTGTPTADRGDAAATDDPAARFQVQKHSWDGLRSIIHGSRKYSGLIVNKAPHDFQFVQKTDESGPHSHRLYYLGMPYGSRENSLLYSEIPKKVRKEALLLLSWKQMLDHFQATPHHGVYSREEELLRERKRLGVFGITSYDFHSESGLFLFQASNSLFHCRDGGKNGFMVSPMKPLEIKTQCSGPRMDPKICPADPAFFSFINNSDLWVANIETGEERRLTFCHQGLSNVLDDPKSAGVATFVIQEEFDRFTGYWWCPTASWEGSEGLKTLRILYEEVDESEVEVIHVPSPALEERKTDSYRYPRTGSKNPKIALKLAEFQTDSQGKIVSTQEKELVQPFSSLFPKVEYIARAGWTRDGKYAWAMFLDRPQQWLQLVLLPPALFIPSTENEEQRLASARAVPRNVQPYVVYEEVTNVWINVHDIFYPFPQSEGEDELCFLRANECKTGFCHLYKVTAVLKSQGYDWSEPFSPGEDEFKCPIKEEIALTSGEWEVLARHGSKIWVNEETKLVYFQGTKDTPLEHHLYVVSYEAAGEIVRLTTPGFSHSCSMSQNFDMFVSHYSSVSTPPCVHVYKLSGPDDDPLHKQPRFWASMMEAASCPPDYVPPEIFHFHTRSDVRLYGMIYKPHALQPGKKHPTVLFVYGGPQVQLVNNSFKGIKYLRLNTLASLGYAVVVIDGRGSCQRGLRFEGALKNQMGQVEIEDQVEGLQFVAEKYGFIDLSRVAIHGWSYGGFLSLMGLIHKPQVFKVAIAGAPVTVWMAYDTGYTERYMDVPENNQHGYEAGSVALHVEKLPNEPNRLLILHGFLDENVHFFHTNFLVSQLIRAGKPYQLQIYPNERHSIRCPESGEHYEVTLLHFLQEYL

## N[C@@H](CC(=O)N1CCN(C(c2ccc(F)cc2)c2ccc(F)cc2)CC1)C(=O)N1Cc2ccccc2C1 [1G244]
B6 BMDMs; 10 μM or 25 μM
  time at which pyroptosis commences: around 10 h
B6 BMDMs; by 24 h, 10 μM or 25 μM
  pyroptosis, share of the cell population: ~20%
B6 BMDMs; by 24 h, 40 μM
  pyroptosis level: 40%
[1]; 10 or 40 μM, 4, 8 or 24 h
  secretion of IL-1β and IL-18 (in words): potently triggered secretion of IL-1β and IL-18
B6^Nlrp1b+ASC^−/− BMDMs [2]
  reduction of maximal level of pyroptosis compared with ASC-sufficient B6^Nlrp1b+ macrophages: about 50%
B6^Nlrp1b+ASC^−/− BMDMs [3]
  caspase-1 maturation (in words): blunted
[4]
  cell death (in words): remained alive and were fully rescued from apoptosis and pyroptosis induction
Human DPP9 [5]; [14]
  Slope factor: 1.30 ± 0.09
Human DPP9 [5]; calibration curve in medium
  Slope factor: 1.39 ± 0.09
Human DPP9 [5]; [15]
  Inhibition: 98%
Human DPP9 [5]; [16]
  Inhibition: 100%
Human DPP9 [5]
  Inhibitor in lysate: 0.06 µM
  Inhibitor in medium: 1.5 µM
B6^Nlrp1b+ BMDMs [6]
  ASC speck formation (in words): marked ASC speck formation
B6^Nlrp1b+ BMDMs [7]
  caspase-1 maturation to p20 (in words): efficiently promoted caspase-1 auto-maturation
B6^Nlrp1b+ BMDMs [7]; 1 μM
  caspase-1 maturation (in words): triggered weak caspase-1 processing
Human DPP9 [8]; [17]
  IC50: 0.01 ± 0.0006 µM
Human DPP9 [8]; [18]
  IC50: 0.0153 ± 0.0008 µM
B6^Nlrp1b+ BMDMs [9]; 0.1 μM
  cell death induction (in words): failed to trigger a cytotoxic response
B6^Nlrp1b+ BMDMs [9]; 1 μM
  cell death induction (in words): induced a reduced level of pyroptosis
B6^Nlrp1b+ BMDMs [9]; 10 μM, by 6 h posttreatment
  plateau of pyroptosis: about 60%
B6^Nlrp1b+ BMDMs [9]
  time to reach 30% half-maximal level of pyroptosis: ≤ 2 h
[10]
  apoptosis induction (in words): potently induce apoptosis

## N#C[C@@H]1CCCN1C(=O)[C@@H]1CCCN1C(=O)CCCc1ccccc1 [KYP-2047]
B6 BMDMs; 10, 25 and 40 μM
  cell death induction (in words): none of the listed inhibitors triggered a cell death response
B6^Nlrp1b+ BMDMs [9]; 10, 25 and 40 μM
  cell death induction (in words): none of the listed inhibitors triggered a cell death response

## N[C@@H](CCNCc1ccc(Cl)cc1)C(=O)N1CCCCC1 [UAMC39]
Human DPP2 [11]; [14]
  Slope factor: 1.3 ± 0.3
Human DPP2 [11]; calibration curve in medium
  Slope factor: 1.4 ± 0.1
Human DPP2 [11]; [15]
  Inhibition: 100%
Human DPP2 [11]; [16]
  Inhibition: 100%
Human DPP2 [11]; mouse, 15 min, 10 µM
  Inhibitor in lysate: 120/66
  Inhibitor in medium: 52/45
B6 BMDMs; 10, 25 and 40 μM
  cell death induction (in words): none of the listed inhibitors triggered a cell death response
Human DPP2 [12]; [17]
  IC50: 0.006 ± 0.001 µM
Human DPP2 [12]; [18]
  IC50: 0.0098 ± 0.0006 µM
B6^Nlrp1b+ BMDMs [9]; 10, 25 and 40 μM
  cell death induction (in words): none of the listed inhibitors triggered a cell death response

## N#C[C@@H]1CC(F)(F)CN1C(=O)CNC(=O)c1ccnc2ccccc12 [UAMC1110]
B6 BMDMs; 10, 25 and 40 μM
  cell death induction (in words): none of the listed inhibitors triggered a cell death response
Human recombinant FAP; [14]
  Slope factor: 1.21 ± 0.07
Human recombinant FAP; calibration curve in medium
  Slope factor: 1.2 ± 0.1
Human recombinant FAP; [15]
  Inhibition: 100%
Human recombinant FAP; [16]
  Inhibition: 100%
Human recombinant FAP; mouse, 15 min, 10 µM
  Inhibitor in lysate: 0.4 µM
  Inhibitor in medium: 8.8 µM
B6^Nlrp1b+ BMDMs [9]; 10, 25 and 40 μM
  cell death induction (in words): none of the listed inhibitors triggered a cell death response

## CC(C)[C@H](N)C(=O)N1CCC[C@H]1B(O)O [VBP, Val-boroPro]
B6 BMDMs; 10, 25 and 40 μM
  time required to reach 30% cytotoxicity: about 8 h
B6 BMDMs; by 6 h, 10, 25 and 40 μM
  level of pyroptosis (SG-positive cells relative to Triton X100): ~20%
B6 BMDMs; by 24 h, 10, 25 and 40 μM
  plateau cytotoxicity: approximately 50%
B6 BMDMs; rebuttal letter, on Figure 1a
  time to reach the same level of cell death induction (35%): approximately 9 h
[1]; 10 or 40 μM, 4, 8 or 24 h
  secretion of IL-1β and IL-18 (in words): potently released IL-1β
B6^Nlrp1b+ASC^−/− BMDMs [2]
  reduction of maximal level of pyroptosis compared with ASC-sufficient B6^Nlrp1b+ macrophages: about 50%
B6^Nlrp1b+ASC^−/− BMDMs [3]
  caspase-1 maturation (in words): blunted
[4]
  cell death (in words): remained alive and were fully rescued from apoptosis and pyroptosis induction
J774.A1 cells
  cytotoxic response (in words): elicited a swift and robust cytotoxic response
B6^Nlrp1b+ BMDMs [6]
  ASC speck formation (in words): marked ASC speck formation
B6^Nlrp1b+ BMDMs [7]
  caspase-1 maturation to p20 (in words): triggered marked caspase-1 cleavage
B6^Nlrp1b+ BMDMs [7]; 0.1 μM
  caspase-1 maturation (in words): failed to induce caspase-1 auto-cleavage
B6^Nlrp1b+ BMDMs [7]; 1 μM
  caspase-1 maturation (in words): sufficient to trigger caspase-1 maturation
B6^Nlrp1b+ BMDMs [9]; 0.1 μM
  cell death induction (in words): failed to trigger a cytotoxic response
B6^Nlrp1b+ BMDMs [9]; 1 μM
  cell death induction (in words): sufficient to induce robust pyroptosis
B6^Nlrp1b+ BMDMs [9]
  time to reach 30% half-maximal level of pyroptosis: ≤ 3 h
B6^Nlrp1b+ BMDMs [9]; rebuttal letter, on Figure 1a
  time to reach half-maximal induction of pyroptosis (35% cell death in the total cell population): about 3 hours
[13]
  caspase-8 cleavage (in words): marked ASC-dependent caspase-8 cleavage
[10]
  apoptosis induction (in words): potently induce apoptosis

## CC(=O)N[C@H](C(=O)N1CCC[C@H]1B(O)O)C(C)C [aVBP]
B6 BMDMs; 10, 25 and 40 μM
  cell death induction (in words): failed to induce cytotoxicity
[1]; 10 or 40 μM, 4, 8 or 24 h
  secretion of IL-1β and IL-18 (in words): failed to induce cytokine secretion
B6^Nlrp1b+ BMDMs [7]
  caspase-1 maturation to p20 (in words): failed to elicit caspase-1 maturation
B6^Nlrp1b+ BMDMs [9]; 10, 25 and 40 μM
  cell death induction (in words): failed to induce cytotoxicity

## CC(C)[C@@H]1[NH2+][B-](O)(O)[C@@H]2CCCN2C1=O [cVBP]
B6 BMDMs; 10, 25 and 40 μM
  cell death induction (in words): failed to induce cell death
[1]; 10 μM
  secretion of IL-1β and IL-18 (in words): less efficient in eliciting extracellular secretion of IL-1β and IL-18
[1]; 40 μM
  secretion of IL-1β and IL-18 (in words): triggered substantial extracellular release of IL-1β and IL-18
Human DPP9 [5]; [14]
  Slope factor: 1.4 ± 0.2
Human DPP9 [5]; calibration curve in medium
  Slope factor: 1.33 ± 0.08
Human DPP9 [5]; [15]
  Inhibition: 2.7%
Human DPP9 [5]; [16]
  Inhibition: 71%
Human DPP9 [5]
  Inhibitor in lysate: 0.3 µM
  Inhibitor in medium: 3.2 µM
Human DPP9 [5]; relative to VBP
  attenuation in ability to inhibit DPP9 activity in vitro: more than 100 fold
B6^Nlrp1b+ BMDMs [7]
  caspase-1 maturation to p20 (in words): caspase-1 p20 cleavage was detected only in lysates of macrophages that had been treated with the highest concentration (40 μM)
Human DPP9 [8]; [17]
  IC50: 1.6 ± 0.1 µM
Human DPP9 [8]; [18]
  IC50: 1.7 ± 0.08 µM
B6^Nlrp1b+ BMDMs [9]; 10, 25 and 40 μM
  cell death induction (in words): induced significant pyroptosis

## N[C@@H](CC(=O)N1CCn2c(nnc2C(F)(F)F)C1)Cc1cc(F)c(F)cc1F [sitagliptin]
B6 BMDMs; 10, 25 and 40 μM
  cell death induction (in words): none of the listed inhibitors triggered a cell death response
B6^Nlrp1b+ BMDMs [9]; 10, 25 and 40 μM
  cell death induction (in words): none of the listed inhibitors triggered a cell death response
